Laboratory results reported in ChEMBL document CHEMBL3885861, “Open TG-GATES”.

Organism: Rattus norvegicus
Experiment: Open TG-GATES - Regimen: Daily Repeat
Format: toxicity, organism-based, Sprague-Dawley
Parameters: regimen Daily Repeat, gender Male, age 6 weeks
Settings: in vivo, po, 100 mg/kg, route gavage, dose level Low; for APTT / Bas / Eos / Fbg / Hb / Ht / Lym / MCH / MCHC / MCV / Mono / Neu / PT / Plat / RBC / Ret / WBC: tissue Blood; for KIDNEY_L / KIDNEY_R / KIDNEY_TOTAL: tissue Kidney; for LIVER: tissue Liver; for A/G / ALP / ALT / AST / BUN / CRE / Ca / Cl / DBIL / GLC / IP / K / LDH / Na / PL / RALB / TBIL / TC / TG / TP / gamma-GTP: tissue Plasma

CC(C)(S)[C@@H](N)C(=O)O [PENICILLAMINE]
TERMINAL_BW (72 h, time 3 day): 236.4 g | APTT (72 h, time 3 day): 16.9 s | Bas (72 h, time 3 day): 0% | Eos (72 h, time 3 day): 1% | Fbg (72 h, time 3 day): 294.8 mg/dL | Hb (72 h, time 3 day): 13.7 g/dL | Ht (72 h, time 3 day): 41.6% | Lym (72 h, time 3 day): 78.8% | MCH (72 h, time 3 day): 20.9 pg | MCHC (72 h, time 3 day): 33% | MCV (72 h, time 3 day): 63.3 fL | Mono (72 h, time 3 day): 2.8% | Neu (72 h, time 3 day): 16.6% | PT (72 h, time 3 day): 14.1 s | Plat (72 h, time 3 day): 122 x10_4/uL | RBC (72 h, time 3 day): 658.2 x10_4/ul | Ret (72 h, time 3 day): 7.4% | WBC (72 h, time 3 day): 84.7 x10_2/uL | KIDNEY_L (72 h, time 3 day): 1 g | KIDNEY_R (72 h, time 3 day): 1 g | KIDNEY_TOTAL (72 h, time 3 day): 1.9 g | LIVER (72 h, time 3 day): 10.8 g | A/G (72 h, time 3 day): 0.9 | ALP (72 h, time 3 day): 1491 IU/L | ALT (72 h, time 3 day): 40.2 IU/L | AST (72 h, time 3 day): 69.8 IU/L | BUN (72 h, time 3 day): 13 mg/dL | CRE (72 h, time 3 day): 0.2 mg/dL | Ca (72 h, time 3 day): 10.8 mg/dL | Cl (72 h, time 3 day): 106.6 meq/L | DBIL (72 h, time 3 day): 0.014 mg/dL | GLC (72 h, time 3 day): 183.8 mg/dL | IP (72 h, time 3 day): 7 mg/dL | K (72 h, time 3 day): 4.1 meq/L | LDH (72 h, time 3 day): 85 IU/L | Na (72 h, time 3 day): 143.8 meq/L | PL (72 h, time 3 day): 156 mg/dL | RALB (72 h, time 3 day): 2.7 g/dL | TBIL (72 h, time 3 day): 0.028 mg/dL | TC (72 h, time 3 day): 80.8 mg/dL | TG (72 h, time 3 day): 114.8 mg/dL | TP (72 h, time 3 day): 5.7 g/dL | gamma-GTP (72 h, time 3 day): 1.2 IU/L | TERMINAL_BW ([…], time 7 day): 276.9 g | TERMINAL_BW ([…], time 14 day): 325.3 g | TERMINAL_BW ([…], time 28 day): 410.3 g | APTT ([…], time 7 day): 17.9 s | Bas ([…], time 7 day): 0.2% | Eos ([…], time 7 day): 1% | Fbg ([…], time 7 day): 305.6 mg/dL | Hb ([…], time 7 day): 13.9 g/dL | Ht ([…], time 7 day): 42.4% | Lym ([…], time 7 day): 80.6% | MCH ([…], time 7 day): 20.7 pg | MCHC ([…], time 7 day): 32.9% | MCV ([…], time 7 day): 63 fL | Mono ([…], time 7 day): 2.4% | Neu ([…], time 7 day): 14.6% | PT ([…], time 7 day): 14.2 s | Plat ([…], time 7 day): 127.2 x10_4/uL | RBC ([…], time 7 day): 674.2 x10_4/ul | Ret ([…], time 7 day): 5.7% | WBC ([…], time 7 day): 102.7 x10_2/uL | APTT ([…], time 14 day): 17.2 s | Bas ([…], time 14 day): 0% | Eos ([…], time 14 day): 1% | Fbg ([…], time 14 day): 300.8 mg/dL | Hb ([…], time 14 day): 14.8 g/dL | Ht ([…], time 14 day): 43.6% | Lym ([…], time 14 day): 82.4% | MCH ([…], time 14 day): 20.7 pg | MCHC ([…], time 14 day): 34% | MCV ([…], time 14 day): 60.9 fL | Mono ([…], time 14 day): 1.8% | Neu ([…], time 14 day): 14% | PT ([…], time 14 day): 13.8 s | Plat ([…], time 14 day): 111.4 x10_4/uL | RBC ([…], time 14 day): 716 x10_4/ul | Ret ([…], time 14 day): 3.9% | WBC ([…], time 14 day): 83.6 x10_2/uL | APTT ([…], time 28 day): 18.8 s | Bas ([…], time 28 day): 0% | Eos ([…], time 28 day): 1.6% | Fbg ([…], time 28 day): 313 mg/dL | Hb ([…], time 28 day): 16.2 g/dL | Ht ([…], time 28 day): 46.8% | Lym ([…], time 28 day): 82.8% | MCH ([…], time 28 day): 20 pg | MCHC ([…], time 28 day): 34.6% | MCV ([…], time 28 day): 57.7 fL | Mono ([…], time 28 day): 1.8% | Neu ([…], time 28 day): 13% | PT ([…], time 28 day): 14.1 s | Plat ([…], time 28 day): 101.2 x10_4/uL | RBC ([…], time 28 day): 812.4 x10_4/ul | Ret ([…], time 28 day): 2.2% | WBC ([…], time 28 day): 93.4 x10_2/uL | KIDNEY_L ([…], time 7 day): 1.1 g | KIDNEY_R ([…], time 7 day): 1.1 g | KIDNEY_TOTAL ([…], time 7 day): 2.3 g | KIDNEY_L ([…], time 14 day): 1.3 g | KIDNEY_R ([…], time 14 day): 1.3 g | KIDNEY_TOTAL ([…], time 14 day): 2.6 g | KIDNEY_L ([…], time 28 day): 1.4 g | KIDNEY_R ([…], time 28 day): 1.4 g | KIDNEY_TOTAL ([…], time 28 day): 2.8 g | LIVER ([…], time 7 day): 12.9 g | LIVER ([…], time 14 day): 14.2 g | LIVER ([…], time 28 day): 15.7 g | A/G ([…], time 7 day): 0.9 | ALP ([…], time 7 day): 1699 IU/L | ALT ([…], time 7 day): 43.4 IU/L | AST ([…], time 7 day): 66.2 IU/L | BUN ([…], time 7 day): 17 mg/dL | CRE ([…], time 7 day): 0.2 mg/dL | Ca ([…], time 7 day): 10.9 mg/dL | Cl ([…], time 7 day): 104.2 meq/L | DBIL ([…], time 7 day): 0.01 mg/dL | GLC ([…], time 7 day): 184 mg/dL | IP ([…], time 7 day): 7.5 mg/dL | K ([…], time 7 day): 3.9 meq/L | LDH ([…], time 7 day): 80.6 IU/L | Na ([…], time 7 day): 142.2 meq/L | PL ([…], time 7 day): 167.8 mg/dL | RALB ([…], time 7 day): 2.7 g/dL | TBIL ([…], time 7 day): 0.028 mg/dL | TC ([…], time 7 day): 85.2 mg/dL | TG ([…], time 7 day): 116.8 mg/dL | TP ([…], time 7 day): 5.8 g/dL | gamma-GTP ([…], time 7 day): 1.2 IU/L | A/G ([…], time 14 day): 0.9 | ALP ([…], time 14 day): 1443.4 IU/L | ALT ([…], time 14 day): 42.8 IU/L | AST ([…], time 14 day): 61.6 IU/L | BUN ([…], time 14 day): 15 mg/dL | CRE ([…], time 14 day): 0.2 mg/dL | Ca ([…], time 14 day): 10.9 mg/dL | Cl ([…], time 14 day): 104.2 meq/L | DBIL ([…], time 14 day): 0.012 mg/dL | GLC ([…], time 14 day): 194.4 mg/dL | IP ([…], time 14 day): 6.7 mg/dL | K ([…], time 14 day): 3.9 meq/L | LDH ([…], time 14 day): 89 IU/L | Na ([…], time 14 day): 142.4 meq/L | PL ([…], time 14 day): 178.2 mg/dL | RALB ([…], time 14 day): 2.8 g/dL | TBIL ([…], time 14 day): 0.028 mg/dL | TC ([…], time 14 day): 85 mg/dL | TG ([…], time 14 day): 171.6 mg/dL | TP ([…], time 14 day): 6 g/dL | gamma-GTP ([…], time 14 day): 1 IU/L | A/G ([…], time 28 day): 0.9 | ALP ([…], time 28 day): 1085 IU/L | ALT ([…], time 28 day): 35 IU/L | AST ([…], time 28 day): 57.2 IU/L | BUN ([…], time 28 day): 16.6 mg/dL | CRE ([…], time 28 day): 0.3 mg/dL | Ca ([…], time 28 day): 10.9 mg/dL | Cl ([…], time 28 day): 105.8 meq/L | DBIL ([…], time 28 day): 0.01 mg/dL | GLC ([…], time 28 day): 179.4 mg/dL | IP ([…], time 28 day): 6.2 mg/dL | K ([…], time 28 day): 3.9 meq/L | LDH ([…], time 28 day): 58 IU/L | Na ([…], time 28 day): 144 meq/L | PL ([…], time 28 day): 159.8 mg/dL | RALB ([…], time 28 day): 2.9 g/dL | TBIL ([…], time 28 day): 0.066 mg/dL | TC ([…], time 28 day): 77.2 mg/dL | TG ([…], time 28 day): 139.2 mg/dL | TP ([…], time 28 day): 6.3 g/dL | gamma-GTP ([…], time 28 day): 1.2 IU/L
